The results in this text go back to ChEMBL document CHEMBL1131744, “Amino-substituted thalidomide analogs: potent inhibitors of TNF-alpha production” (Bioorg Med Chem Lett, 1999).

Test [1] has as its system PBMC. As to the kind of experiment: Inhibition of lipopolysaccharide stimulated TNF-alpha release in human PBMC at 100 uM. The test is classed as functional.
The species named for a further test is Homo sapiens. As to the kind of experiment: Inhibition of lipopolysaccharide stimulated TNF-alpha release in human whole blood. The test is classed as functional.
Test [2] relates to PBMC. As to the kind of experiment: Inhibition of lipopolysaccharide stimulated TNF-alpha release in human PBMC. The test is classed as functional, cell-based.
Test [3] deals with T1, Phosphodiesterase 4 (Homo sapiens) (UniProt P27815+Q08499+Q07343+Q08493). Put plainly: Inhibition of PDE4 from U937 cells at 100 uM. The test is classed as cell-based. The note with it: U-937.
Test [4] concerns the target T1, Phosphodiesterase 4 (Homo sapiens). As to the kind of experiment: Inhibition of Phosphodiesterase 4 from U937 cells at 100 uM. Particulars: U-937. The test is classed as cell-based.

In the test with PBMC [1], `Nc1ccc2c(c1)C(=O)N(C1CCC(=O)NC1=O)C2=O` (stereo unspecified) displayed an inhibition at 100 µM of 55%.

`Nc1cccc2c1C(=O)N([C@@H]1CCC(=O)NC1=O)C2=O` came in with an inhibition at 100 µM in the test on PBMC [1] of 85%. The IC50 in the test filed under Homo sapiens turned out to be 73 nM; with PBMC [2], 93 nM.

In turn, `CC1(N2C(=O)c3cccc(N)c3C2=O)CCC(=O)NC1=O` (stereo unspecified) showed an inhibition at 100 µM with PBMC [1] of 98%. For the same compound, the IC50 in the test listed under Homo sapiens was 216 nM; in the test on PBMC [2], 44 nM. For the same compound, the inhibition in test [3] is less than 50%.

For `Nc1cccc2c1C(=O)N([C@H]1CCC(=O)NC1=O)C2=O`, in the test on PBMC [1], the inhibition at 100 µM worked out at 99%. Also, the values for the concentration for half-maximal inhibition (IC50) in the test listed under Homo sapiens and with PBMC [2] were 14 nM and 3.9 nM, respectively.

On to `Nc1cccc2c1C(=O)N(C1CCC(=O)NC1=O)C2` (stereo unspecified), for which at 100 µM the inhibition in the test on PBMC [1] was 18%.

`Nc1cccc2c1CN(C1CCC(=O)NC1=O)C2=O` (stereo unspecified) [LENALIDOMIDE] came in with an inhibition in test [4] of less than 50%. The same compound showed an inhibition at 100 µM in the test with PBMC [1] of 74%. This compound also displayed an IC50 in the test filed under Homo sapiens of 480 nM.

In the test on PBMC [1], `Nc1ccc2c(c1)CN(C1CCC(=O)NC1=O)C2=O` (stereo unspecified) registered an inhibition at 100 µM of 15%.

`Nc1ccc2c(c1)C(=O)N(C1CCC(=O)NC1=O)C2` (stereo unspecified): the inhibition at 100 µM with PBMC [1] is 12%.

`Nc1cccc2c1C(=O)N(C1CCC(=O)NC1=O)C2=O` (stereo unspecified) [POMALIDOMIDE]: in test [4], the inhibition was less than 50%. In the test with PBMC [1], this compound registered an inhibition at 100 µM of 95%. For the same compound, the IC50 in the test listed under Homo sapiens was determined as 25 nM; with PBMC [2] it was 13 nM.

Broadly, the inhibition is the percentage by which the read-out fell short of the control. What is called IC50 is the concentration needed to halve the response being measured. Read a low IC50 as higher potency.
